Laboratory results: patent US20080176810A1, “Use of 3, 4', 5-Trihydroxy-Stilbene-3-Beta-D-glucoside in Prepartion of Medicines For Treating and/or Preventing Ischemic Heart Disease” (SHENZHEN NEPTUNUS PHARMACEUTICAL CO., LTD., priority 2004, published 2008)

What was measured:
[1] = tested on: myocardial infarction induced by ligation of coronary artery; assay: Canine model of myocardial infarction induced by ligation of coronary artery, iv; assay type: in vivo, dogs; conditions: for sum of ST (ΣST) segment elevation, x ± s: 0 min before, c3-c8 5,15,30,60,90,120 min after administration; for IZ/LV / IZ/WT: N-BT staining; for CK after administration / CK before administration / LDH after administration / LDH before administration: serum
Method: Drugs were medicated with intravenous injection. The volume of the drug administered was the same as that of normal saline for the animal model group of ischemic reperfusion with administrative volume of 2 ml/kg.
After weighing, the animals were anesthetised with pentobarbital sodium iv at the dose of 30 mg/kg. Tracheal intubation was performed and SC-M5 anesthesia respirator (manufactured by Shanghai Medical Instrument Factory) was connected for mechanical ventilation (16˜18 per min with tidal volume of 350˜550 ml) after thoracotomy at the fourth intercostal space of left sternal border. With exposure of the heart, the pericardium was cut open to make pericardium hammock. The coronary artery was dissociated from between the first and second branches of left anterior descending coronary artery, underneath which passed through silk threads for two-step ligation. On surface of heart were placed 30-point epicardial leads, to which four limbs were connected through needle-electrodes, which in turn were connected to Powerlab/8s (AD Instruments) with a multichannel switcher. Harris Two-step Ligation was performed. Two minutes before first ligation, 5 mg/kg lidocaine was given by femoral intravenous injection to prevent arrhythmia. While performing ligation, a steel wire of 1 mm in diameter was inserted into the first knot so as to be ligated together with the coronary artery. Afterward, the steel-wire was pulled out and then 30 min later, the second knot was made to complete the ligation.
The epicardial electrogram 10 min after completing the ligation was recorded as the control value before drug administration. Later, test drug was given by femoral intravenous injection while the negative control group was given solvent of same volume. Constant dripping was completed within 30 min for all groups with a constant flow pump (SH-88AB Controllable Intravenous Injector made by Quanzhou Lizhong Electronic Medical Instrument Factory). After completion of the constant dripping, changes of epcardial electrogram at 5, 15, 30, 60, 90 and 120 min after administration were recorded respectively. The number of ST segment elevation or depression to more than 2 mV and sum of total value ST segment elevation (ΣST) were applied as the indexes for observation of changes of epcardial electrogram and to calculate the percentage of the weight of infarct area to the weight of whole heart or to the weight of left ventricle. 3 ml of blood from right ventricle was sampled before ligation and 2 hrs after administration. After centrifuged at 3000 rpm for 15 min, serum was taken to detect lactate dehydrogenase (LDH) and serum creatine kinase (CK). Method according to instruction of the LDH and CK Assay kit (batch no: 20020523, Nanjing Jiancheng Bioengineering Institute) (ENR: U90625, Randox Company, UK) was adopted for detection. The performance was with a ultraviolet/visible range spectrophotometer of UV751GD type (Shanghai analytical apparatus Factory).

Kunming mice = assay: Acute toxicity test of mice, intravenous injection; conditions: single dose tail intravenous injection
Method: Drugs were medicated via intravenous injection at different concentration in same volume, which was 20 ml/kg.
40 healthy Kunming mice were selected and randomly divided into 4 groups. Drugs were injected via tail vein at one time and the doses were 300 mg/kg, 425 mg/kg, 600 mg/kg and 850 mg/kg, respectively. Mice were constantly observed for 4 hours after the injection. After that, observations were carried out once in the morning and once in the afternoon for 7 days continuously. Signs of intoxation and time of death were recorded.

3,4′,5-trihydroxy-stilbene-3-β-D-glucoside [TSG]
CK B/A ([1]; TSG 2.5 mg/kg): 2.54 ± 0.27
LDH B/A ([1]; TSG 2.5 mg/kg): 2.28 ± 0.21
sum of ST (ΣST) segment elevation, x ± s ([1]; TSG 2.5 mg/kg iv, 0 min before administration): 154.5 ± 60.4 mV
sum of ST (ΣST) segment elevation, x ± s ([1]; TSG 2.5 mg/kg iv, 5 min after administration): 154.7 ± 55.0 mV
sum of ST (ΣST) segment elevation, x ± s ([1]; TSG 2.5 mg/kg iv, 30 min after administration): 129.2 ± 57.7 mV
sum of ST (ΣST) segment elevation, x ± s ([1]; TSG 2.5 mg/kg iv, 60 min after administration): 122.7 ± 59.6 mV
sum of ST (ΣST) segment elevation, x ± s ([1]; TSG 2.5 mg/kg iv, 90 min after administration): 128.3 ± 55.1 mV
IZ/LV ([1]; TSG 2.5 mg/kg): 21.68 ± 1.88 %
IZ/WT ([1]; TSG 2.5 mg/kg): 11.70 ± 0.93 %
CK after administration ([1]; TSG 2.5 mg/kg): 446.6 ± 39.4 IU/L
CK before administration ([1]; TSG 2.5 mg/kg): 176.7 ± 18.8 IU/L
LDH after administration ([1]; TSG 2.5 mg/kg): 823.3 ± 186.3 IU/L
LDH before administration ([1]; TSG 2.5 mg/kg): 359.7 ± 70.5 IU/L
CK B/A ([1]; TSG 5.0 mg/kg): 1.98 ± 0.38
LDH B/A ([1]; TSG 5.0 mg/kg): 2.09 ± 0.16
sum of ST (ΣST) segment elevation, x ± s ([1]; TSG 5.0 mg/kg iv, 0 min before administration): 153.8 ± 50.7 mV
sum of ST (ΣST) segment elevation, x ± s ([1]; TSG 5.0 mg/kg iv, 5 min after administration): 148.0 ± 39.9 mV
sum of ST (ΣST) segment elevation, x ± s ([1]; TSG 5.0 mg/kg iv, 30 min after administration): 116.2 ± 53.7 mV
sum of ST (ΣST) segment elevation, x ± s ([1]; TSG 5.0 mg/kg iv, 60 min after administration): 105.3 ± 53.6 mV
sum of ST (ΣST) segment elevation, x ± s ([1]; TSG 5.0 mg/kg iv, 90 min after administration): 103.8 ± 54.1 mV
IZ/LV ([1]; TSG 5.0 mg/kg): 15.25 ± 1.41 %
IZ/WT ([1]; TSG 5.0 mg/kg): 9.03 ± 1.16 %
CK after administration ([1]; TSG 5.0 mg/kg): 356.2 ± 64.8 IU/L
CK before administration ([1]; TSG 5.0 mg/kg): 180.8 ± 13.2 IU/L
LDH after administration ([1]; TSG 5.0 mg/kg): 587.1 ± 170.6 IU/L
LDH before administration ([1]; TSG 5.0 mg/kg): 281.2 ± 80.9 IU/L
CK B/A ([1]; TSG 10 mg/kg): 1.74 ± 0.37
LDH B/A ([1]; TSG 10 mg/kg): 1.99 ± 0.14
sum of ST (ΣST) segment elevation, x ± s ([1]; TSG 10 mg/kg iv, 0 min before administration): 155.0 ± 46.4 mV
sum of ST (ΣST) segment elevation, x ± s ([1]; TSG 10 mg/kg iv, 5 min after administration): 151.7 ± 35.6 mV
sum of ST (ΣST) segment elevation, x ± s ([1]; TSG 10 mg/kg iv, 30 min after administration): 115.2 ± 50.9 mV
sum of ST (ΣST) segment elevation, x ± s ([1]; TSG 10 mg/kg iv, 60 min after administration): 104.7 ± 45.5 mV
sum of ST (ΣST) segment elevation, x ± s ([1]; TSG 10 mg/kg iv, 90 min after administration): 102.0 ± 51.8 mV
IZ/LV ([1]; TSG 10 mg/kg): 13.92 ± 1.32 %
IZ/WT ([1]; TSG 10 mg/kg): 8.65 ± 1.11 %
CK after administration ([1]; TSG 10 mg/kg): 299.5 ± 63.9 IU/L
CK before administration ([1]; TSG 10 mg/kg): 172.7 ± 11.1 IU/L
LDH after administration ([1]; TSG 10 mg/kg): 551.6 ± 131.3 IU/L
LDH before administration ([1]; TSG 10 mg/kg): 279.3 ± 70.8 IU/L
signs of intoxication (Kunming mice): body shaking, occasionally restlessness, twitch and other responses appeared
time of death after the drug injection (Kunming mice): 5 to 1440 min
